Experimental data published in PubChem BioAssay (NCI).
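Tested at 5 concentrations; 48 h exposure; 96-well plates; endpoints linearly interpolated, else capped at highest concentration. Abbreviation: GI50, concentration required for 50% inhibition of growth. TGI: total growth inhibition.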

Experiments:
Assay in all cases: inhibition of tumour cell growth, NCI panel, 48 h
786-0 renal = system: 786-0 renal
A498 renal = system: A498 renal
A549 NSCLC = system: A549 NSCLC
ACHN renal = system: ACHN renal
BT-549 breast = system: BT-549 breast
CAKI-1 renal = system: CAKI-1 renal
CCRF-CEM leukemia = system: CCRF-CEM leukemia
COLO 205 colon = system: COLO 205 colon
DU-145 prostate = system: DU-145 prostate
EKVX NSCLC = system: EKVX NSCLC
HCC-2998 colon = system: HCC-2998 colon
HCT-116 colon = system: HCT-116 colon
HCT-15 colon = system: HCT-15 colon
HL-60(TB) leukemia = system: HL-60(TB) leukemia
HOP-62 NSCLC = system: HOP-62 NSCLC
HOP-92 NSCLC = system: HOP-92 NSCLC
HS 578T breast = system: HS 578T breast
HT29 colon = system: HT29 colon
IGROV1 ovarian = system: IGROV1 ovarian
K-562 leukemia = system: K-562 leukemia
KM12 colon = system: KM12 colon
LOX IMVI melanoma = system: LOX IMVI melanoma
M14 melanoma = system: M14 melanoma
MALME-3M melanoma = system: MALME-3M melanoma
MCF7 breast = system: MCF7 breast
MDA-MB-231 breast = system: MDA-MB-231 breast
MDA-MB-435 = system: MDA-MB-435
MOLT-4 leukemia = system: MOLT-4 leukemia
NCI-H226 lung = system: NCI-H226 lung
NCI-H23 lung = system: NCI-H23 lung
NCI-H460 lung = system: NCI-H460 lung
NCI-H522 lung = system: NCI-H522 lung
NCI/ADR-RES ovarian = system: NCI/ADR-RES ovarian
OVCAR-3 ovarian = system: OVCAR-3 ovarian
OVCAR-4 ovarian = system: OVCAR-4 ovarian
OVCAR-5 ovarian = system: OVCAR-5 ovarian
OVCAR-8 ovarian = system: OVCAR-8 ovarian
PC-3 prostate = system: PC-3 prostate
RPMI-8226 leukemia = system: RPMI-8226 leukemia
RXF 393 renal = system: RXF 393 renal
SF-268 CNS = system: SF-268 CNS
SF-295 CNS = system: SF-295 CNS
SF-539 CNS = system: SF-539 CNS
SK-MEL-2 melanoma = system: SK-MEL-2 melanoma
SK-MEL-28 melanoma = system: SK-MEL-28 melanoma
SK-MEL-5 melanoma = system: SK-MEL-5 melanoma
SK-OV-3 ovarian = system: SK-OV-3 ovarian
SN12C renal = system: SN12C renal
SNB-19 CNS = system: SNB-19 CNS
SNB-75 CNS = system: SNB-75 CNS
SR leukemia = system: SR leukemia
SW-620 colon = system: SW-620 colon
T-47D breast = system: T-47D breast
TK-10 renal = system: TK-10 renal
U251 CNS = system: U251 CNS
UACC-257 melanoma = system: UACC-257 melanoma
UACC-62 melanoma = system: UACC-62 melanoma
UO-31 renal = system: UO-31 renal

In the case of `COc1ccc(-c2cn[nH]c2-c2cc(OC)c(OC)c(OC)c2)cc1OCc1ccccc1`, the GI50 (786-0 renal) is reported as 2.96 µM, the TGI (786-0 renal) is reported as 16.2 µM and the GI50 (A498 renal) is reported as 2.08 µM. It also gave a TGI (A498 renal) of 5.51 µM, a GI50 (A549 NSCLC) of 3.56 µM and a TGI (A549 NSCLC) of 51.6 µM. The GI50 (ACHN renal) was 3.53 µM, the TGI (ACHN renal) was 35.2 µM and the GI50 (BT-549 breast) was 5.33 µM. For the same molecule, the TGI (BT-549 breast) was 25.8 µM, the GI50 (CAKI-1 renal) was 3.58 µM and the TGI (CAKI-1 renal) was 47.1 µM. It also gave a GI50 (CCRF-CEM leukemia) of 3.49 µM, a TGI (CCRF-CEM leukemia) of 26.5 µM and a GI50 (COLO 205 colon) of 4.58 µM. It also gave a TGI (COLO 205 colon) of 18.1 µM, a GI50 (DU-145 prostate) of 3.94 µM and a TGI (DU-145 prostate) of 21.6 µM. For the same molecule, the GI50 (EKVX NSCLC) was 4.48 µM, the TGI (EKVX NSCLC) was 47.2 µM and the GI50 (HCC-2998 colon) was 3.45 µM. For the same molecule, the TGI (HCC-2998 colon) was 12.1 µM, the GI50 (HCT-116 colon) was 3.13 µM and the TGI (HCT-116 colon) was 11.2 µM. For the same molecule, the GI50 (HCT-15 colon) was 3.07 µM, the TGI (HCT-15 colon) was 13.2 µM and the GI50 (HL-60(TB) leukemia) was 2.36 µM. For the same molecule, the TGI (HL-60(TB) leukemia) was 5.44 µM, the GI50 (HOP-62 NSCLC) was 3.13 µM and the TGI (HOP-62 NSCLC) was 14.1 µM. For the same molecule, the GI50 (HOP-92 NSCLC) was 2.01 µM, the TGI (HOP-92 NSCLC) was 15.3 µM and the GI50 (HS 578T breast) was 2.23 µM. The TGI (HS 578T breast) was 8.86 µM, the GI50 (HT29 colon) was 3.61 µM and the TGI (HT29 colon) was 15.8 µM. It also gave a GI50 (IGROV1 ovarian) of 3.52 µM, a TGI (IGROV1 ovarian) of 18.7 µM and a GI50 (K-562 leukemia) of 3.18 µM. The TGI (K-562 leukemia) was over 100 µM, the GI50 (KM12 colon) was 3.3 µM and the TGI (KM12 colon) was 12 µM. It also gave a GI50 (LOX IMVI melanoma) of 3.44 µM, a TGI (LOX IMVI melanoma) of 13.6 µM and a GI50 (M14 melanoma) of 2.63 µM. It also gave a TGI (M14 melanoma) of 8.77 µM, a GI50 (MALME-3M melanoma) of 4.28 µM and a TGI (MALME-3M melanoma) of 26.2 µM. For the same molecule, the GI50 (MCF7 breast) was 3.65 µM, the TGI (MCF7 breast) was 17.1 µM and the GI50 (MDA-MB-231 breast) was 3.25 µM. It also gave a TGI (MDA-MB-231 breast) of 16.5 µM, a GI50 (MDA-MB-435) of 1.95 µM and a TGI (MDA-MB-435) of 3.91 µM. It also gave a GI50 (MOLT-4 leukemia) of 3.1 µM, a TGI (MOLT-4 leukemia) of 11 µM and a GI50 (NCI-H226 lung) of 3.57 µM. For the same molecule, the TGI (NCI-H226 lung) was 20.5 µM, the GI50 (NCI-H23 lung) was 4.21 µM and the TGI (NCI-H23 lung) was 31.7 µM. It also gave a GI50 (NCI-H460 lung) of 3.35 µM, a TGI (NCI-H460 lung) of 12.2 µM and a GI50 (NCI-H522 lung) of 2 µM. The TGI (NCI-H522 lung) was 9.31 µM, the GI50 (NCI/ADR-RES ovarian) was 2.52 µM and the TGI (NCI/ADR-RES ovarian) was 7.43 µM. It also gave a GI50 (OVCAR-3 ovarian) of 2.47 µM, a TGI (OVCAR-3 ovarian) of 5.44 µM and a GI50 (OVCAR-4 ovarian) of 4.97 µM. For the same molecule, the TGI (OVCAR-4 ovarian) was 59.1 µM, the GI50 (OVCAR-5 ovarian) was 3.76 µM and the TGI (OVCAR-5 ovarian) was 28 µM. It also gave a GI50 (OVCAR-8 ovarian) of 3.72 µM, a TGI (OVCAR-8 ovarian) of 30.3 µM and a GI50 (PC-3 prostate) of 3.24 µM. For the same molecule, the TGI (PC-3 prostate) was 19.1 µM, the GI50 (RPMI-8226 leukemia) was 2.22 µM and the TGI (RPMI-8226 leukemia) was 9.28 µM. For the same molecule, the GI50 (RXF 393 renal) was 1.95 µM, the TGI (RXF 393 renal) was 4.85 µM and the GI50 (SF-268 CNS) was 4.6 µM. It also gave a TGI (SF-268 CNS) of 27 µM, a GI50 (SF-295 CNS) of 3.01 µM and a TGI (SF-295 CNS) of 9.02 µM. It also gave a GI50 (SF-539 CNS) of 2.19 µM, a TGI (SF-539 CNS) of 5.23 µM and a GI50 (SK-MEL-2 melanoma) of 4.27 µM. The TGI (SK-MEL-2 melanoma) was 16.7 µM, the GI50 (SK-MEL-28 melanoma) was 4.86 µM and the TGI (SK-MEL-28 melanoma) was 18.3 µM. For the same molecule, the GI50 (SK-MEL-5 melanoma) was 2.29 µM, the TGI (SK-MEL-5 melanoma) was 5.89 µM and the GI50 (SK-OV-3 ovarian) was 3.74 µM. The TGI (SK-OV-3 ovarian) was 23.8 µM, the GI50 (SN12C renal) was 4.41 µM and the TGI (SN12C renal) was 19.4 µM. It also gave a GI50 (SNB-19 CNS) of 4.23 µM, a TGI (SNB-19 CNS) of 24.7 µM and a GI50 (SNB-75 CNS) of 2.91 µM. For the same molecule, the TGI (SNB-75 CNS) was 9.23 µM, the GI50 (SR leukemia) was 2.85 µM and the TGI (SR leukemia) was 9.38 µM. The GI50 (SW-620 colon) was 4.37 µM, the TGI (SW-620 colon) was 30.2 µM and the GI50 (T-47D breast) was 2.83 µM. The TGI (T-47D breast) was 19.1 µM, the GI50 (TK-10 renal) was 4.53 µM and the TGI (TK-10 renal) was 49 µM. The GI50 (U251 CNS) was 3.24 µM, the TGI (U251 CNS) was 11.8 µM and the GI50 (UACC-257 melanoma) was 6.38 µM. It also gave a TGI (UACC-257 melanoma) of 24.3 µM, a GI50 (UACC-62 melanoma) of 3.02 µM and a TGI (UACC-62 melanoma) of 13.3 µM. It also gave a GI50 (UO-31 renal) of 3.21 µM and a TGI (UO-31 renal) of 15.2 µM.
